From publication PMC4122973 (Bioscience Reports, 2014)
“Also recorded” adds a separate entry of the source.

Columns and labels:
[1] = system: HEK-293 cells transfected with empty pcDNA3.1neo vector; assay: Fluo-3 intracellular Ca2+ assay, control HEK-293 cells with empty pcDNA3.1neo vector; format: cell-based, human; conditions: HEK-293 empty pcDNA3.1neo vector; 40 nM WS 12 (Figure S1a)
Procedure: Following a brief wash with PBS, cells were detached from each T75 flask by soaking with 2 ml Hepes-buffered saline EDTA (10 mM Hepes pH7.4, 155 mM NaCl, 1.7 mM EDTA) for several minutes and were harvested by addition of 10 ml PBS with gentle agitation and transfer to a 25 ml universal. A sample was taken to calculate cell yield using a hemocytometer and the cells were pelleted by centrifugation at 1500 rpm for 4 min. The pellet was resuspended in isotonic buffer (145 mM NaCl, 5 mM KCl, 1 mM MgCl2, 1 mM CaCl2, 10 mM Hepes pH7.4, 10 mM glucose, a variable content of probenecid (0, 0.13, 0.26, 0.52, 1.0, 2.0 or 2.5 mM) or 0.18 mM sulfinpyrazone, with optional 10 mg/ml BSA (all from Sigma-Aldrich) at a density of 5×10^6/ml and mixed with 2.5 or 5.0 μl Fluo-3AM (Invitrogen) from a 2.5 μg/μl stock solution prepared in (DMSO, Sigma-Aldrich). Cells were incubated in a 25 ml universal in the dark at room temperature with gentle rotary mixing (50 rpm) for 30–45 min and then washed by addition of 18 ml PBS followed by centrifugation and resuspension in isotonic buffer without BSA at 5×10^6 cells/ml. […] Real-time fluorescence intensity measurements were collected and data were exported to Microsoft Excel for analysis. […]

TRPM8 FK 1045,1046 AG [2] = biological target: T1, TRPM8 FK 1045,1046 AG (Homo sapiens, UniProt Q7Z2W7, F1045A/K1046G); assay: Fluo-3 intracellular Ca2+ assay, HEK-293 cells expressing TRPM8 FK 1045,1046 AG mutant; format: cell-based; conditions: HEK293 TRPM8 FK / AG; mean±S.E.M., n=3; read-out: EC50 for WS 12 (peak intracellular Ca2+ fluorescence)
T1 construct: expressed in transfected cells
From the text: (§1) Human TRPM8 cDNA was cloned by RT–PCR from human prostate cancer cell line LNCaP (from the American Type Culture Collection) by ligation into pcDNA3.1neo and its DNA sequence validated (L.R. Sadofsky, unpublished work). Normal TRPM8 cDNA was mutated using synthetic oligonucleotides (from Eurofins, MWG, Operon) to amplify full-length plasmid DNA with Pfu DNA polymerase (Thermo Scientific). Amplified DNA was used to transform competent Esherichia coli (Agilent) and individual plasmid clones were screened by diagnostic restriction enzyme digestion-agarose gel electrophoresis. […]
(§2) Cell suspension for assay was added to 1.9 ml isotonic assay buffer (no BSA) in a 10×10×45 mm polystyrene cuvette (Sarstedt Ltd) containing a small magnetic flea for continuous stirring (~50 rpm), to bring the final volume to 2 ml, and placed within the photomultipler light box. […] Real-time fluorescence intensity measurements were collected and data were exported to Microsoft Excel for analysis. […]
(§3) Data from the measurement of Ca^2+ transients (each treatment including a 2 μM A23187 Ca^2+ ionophore control) were used to generate fluorescence intensity traces in Microsoft Excel. RFU (relative fluorescence unit) values for baseline and agonist-induced peak Ca^2+ fluo-3-fluorescence were determined by the manual analysis of graphs. […]

TRPM8 SV 762,763 EL = biological target: T2, TRPM8 SV 762,763 EL (Homo sapiens, UniProt Q7Z2W7, S762E/V763L); assay: Fluo-3 intracellular Ca2+ assay, HEK-293 cells expressing TRPM8 SV 762,763 EL mutant; format: cell-based; conditions: HEK293 TRPM8 SV / EL; mean±S.E.M., n=3; read-out: EC50 for WS 12 (peak intracellular Ca2+ fluorescence)
T2 construct: expressed in transfected cells
From the text: as §1, §2, §3

TRPM8 FK 1045,1046 AG [3] = biological target: T1, TRPM8 FK 1045,1046 AG; assay: Fluo-3 intracellular Ca2+ assay, SH-SY5Y cells expressing TRPM8 FK 1045,1046 AG mutant; format: cell-based
From the text: as §1, §2, §3

human TRPM8 = biological target: T3, human TRPM8 (Homo sapiens, UniProt Q7Z2W7); assay: Fluo-3 intracellular Ca2+ assay, HEK-293 cells expressing normal human TRPM8; format: cell-based
T3 construct: expressed in transfected cells
Procedure: (§4) When cells reached approximately 80% confluence they were harvested for assays measuring Ca^2+ transients in response to TRP channel activation. […] A sample was taken to calculate cell yield using a hemocytometer and the cells were pelleted by centrifugation at 1500 rpm for 4 min.
(§5) Cell suspension for assay was added to 1.9 ml isotonic assay buffer (no BSA) in a 10×10×45 mm polystyrene cuvette (Sarstedt Ltd) containing a small magnetic flea for continuous stirring (~50 rpm), to bring the final volume to 2 ml, and placed within the photomultipler light box. […] Slit apertures were adjusted to enable maximum sensitivity while maintaining low noise. TRP channel agonist was administered by injection into the cuvette using a 1–20 μl pipette fitted with a narrow, extended-reach disposable tip. Antagonists were pre-added to cuvettes where appropriate. Real-time fluorescence intensity measurements were collected and data were exported to Microsoft Excel for analysis. Experimental treatments were performed in triplicate on three separate occasions to facilitate statistical analyses of reproducibility.
Data from the measurement of Ca^2+ transients (each treatment including a 2 μM A23187 Ca^2+ ionophore control) were used to generate fluorescence intensity traces in Microsoft Excel. RFU (relative fluorescence unit) values for baseline and agonist-induced peak Ca^2+ fluo-3-fluorescence were determined by the manual analysis of graphs. Agonist dose-dependent changes in peak RFU were expressed as ΔRFU relative to baseline and relative to maximum RFU elicited by A23187. […] This enabled estimation of excitatory concentration EC50 for agonists and inhibitory concentration IC50 values where pre-incubation with antagonist was employed. Comparisons between data generated in triplicate within individual experiments and between experiments performed on […] were analysed using Student's t test and one-way ANOVA with post-hoc analysis of group means using Tukey's multiple comparison test.

TRPA1 797T = biological target: T4, TRPA1 797T (Homo sapiens, UniProt O75762, R797T); assay: Fluo-3 intracellular Ca2+ assay, HEK-293 cells expressing TRPA1 797T SNP variant; format: cell-based; conditions: HEK-293 TRPA1 797T; mean ±standard deviation, n=4; read-out: EC50 cinnamaldehyde
T4 construct: expressed in transfected cells
From the text: (§6) Human TRPA1 cDNA in pcDNA3.1neo [41] was mutated to create SNP variants using quick change PCR with appropriate primer pairs: R797T forward 5′ […] TT and reverse 5′ […], S804N forward 5′ […] ATGTTC and reverse 5′ […]. Likewise, the experimental mutant S873E, in ICL-2 (intracellular loop-2), was created using PCR primers: forward 5′ […] […] and reverse 5′ […]. For C-terminal extension, TRPA1cDNA was modified by excision of the 3′ section of the coding region (BamHI–XbaI digestion) and replacement with a BamHI–XbaI digested PCR amplified section containing codons for ten histidine residues (His)10 prior to the translation stop codon using T4 DNA ligase (Promega). PCR primers were: sense 5′ TTTAC […] CATT 3′ and antisense 5′ […] […] TGCCTT 3′. […]
(§7) Aliquots of cell suspension (usually 100 μl) were used for measurement of intracellular Ca^2+ transients using a PTI (Photon Technology International) 814 photomultiplier detection system interfaced with a desktop computer (PTI Inc.). […] The cuvette was illuminated using light at a wavelength of 506 nm (slit width 8 nm) and monitored using fluorescence detection at 526 nm (slit width 8 nm) coupled to FeliX GX software (PTI Inc). […] Real-time fluorescence intensity measurements were collected and data were exported to Microsoft Excel for analysis. […]

TRPA1 804N = biological target: T5, TRPA1 804N (Homo sapiens, UniProt O75762, S804N); assay: Fluo-3 intracellular Ca2+ assay, HEK-293 cells expressing TRPA1 804N SNP variant; format: cell-based; conditions: HEK-293 TRPA1 804N; mean ±standard deviation, n=4; read-out: EC50 cinnamaldehyde
T5 construct: expressed in transfected cells
From the text: as §6, §7

TRPA1 797R = biological target: T6, TRPA1 797R (Homo sapiens, UniProt O75762); assay: Fluo-3 intracellular Ca2+ assay, HEK-293 cells expressing TRPA1 797R (reference sequence); format: cell-based
T6 construct: expressed in transfected cells
Procedure: When cells reached approximately 80% confluence they were harvested for assays measuring Ca^2+ transients in response to TRP channel activation. Following a brief wash with PBS, cells were detached from each T75 flask by soaking with 2 ml Hepes-buffered saline EDTA (10 mM Hepes pH7.4, 155 mM NaCl, 1.7 mM EDTA) for several minutes and were harvested by addition of 10 ml PBS with gentle agitation and transfer to a 25 ml universal. A sample was taken to calculate cell yield using a hemocytometer and the cells were pelleted by centrifugation at 1500 rpm for 4 min. […]

TRPA1-(His)10 = biological target: T7, TRPA1-(His)10 (Homo sapiens, UniProt O75762); assay: Fluo-3 intracellular Ca2+ assay, HEK-293 cells expressing TRPA1-(His)10; format: cell-based; conditions: HEK-293 TRPA1-(His)10; mean ±standard deviation, n=4; read-out: EC50 cinnamaldehyde
T7 construct: expressed in transfected cells
From the text: as §6, §7

SH-SY5Y TRPA1 R797T = biological target: T8, SH-SY5Y TRPA1 R797T (Homo sapiens, UniProt O75762, R797T); assay: Fluo-3 intracellular Ca2+ assay, TRPA1-transfected SH-SY5Y cells that lost response to agonist; format: cell-based; conditions: pre-treatment followed by AITC
T8 construct: expressed in transfected cells
Procedure: as §4
as §5, with “Antagonists were pre-added to cuvettes where appropriate.” left out, “Experimental treatments were performed in triplicate on three separate occasions to facilitate statistical analyses of reproducibility.” left out
as §3, with “graphs. Agonist dose-dependent changes in peak RFU were expressed as ΔRFU relative to baseline and relative to maximum RFU elicited by A23187.” for “graphs.”

T6 sequence (O75762 whole entry): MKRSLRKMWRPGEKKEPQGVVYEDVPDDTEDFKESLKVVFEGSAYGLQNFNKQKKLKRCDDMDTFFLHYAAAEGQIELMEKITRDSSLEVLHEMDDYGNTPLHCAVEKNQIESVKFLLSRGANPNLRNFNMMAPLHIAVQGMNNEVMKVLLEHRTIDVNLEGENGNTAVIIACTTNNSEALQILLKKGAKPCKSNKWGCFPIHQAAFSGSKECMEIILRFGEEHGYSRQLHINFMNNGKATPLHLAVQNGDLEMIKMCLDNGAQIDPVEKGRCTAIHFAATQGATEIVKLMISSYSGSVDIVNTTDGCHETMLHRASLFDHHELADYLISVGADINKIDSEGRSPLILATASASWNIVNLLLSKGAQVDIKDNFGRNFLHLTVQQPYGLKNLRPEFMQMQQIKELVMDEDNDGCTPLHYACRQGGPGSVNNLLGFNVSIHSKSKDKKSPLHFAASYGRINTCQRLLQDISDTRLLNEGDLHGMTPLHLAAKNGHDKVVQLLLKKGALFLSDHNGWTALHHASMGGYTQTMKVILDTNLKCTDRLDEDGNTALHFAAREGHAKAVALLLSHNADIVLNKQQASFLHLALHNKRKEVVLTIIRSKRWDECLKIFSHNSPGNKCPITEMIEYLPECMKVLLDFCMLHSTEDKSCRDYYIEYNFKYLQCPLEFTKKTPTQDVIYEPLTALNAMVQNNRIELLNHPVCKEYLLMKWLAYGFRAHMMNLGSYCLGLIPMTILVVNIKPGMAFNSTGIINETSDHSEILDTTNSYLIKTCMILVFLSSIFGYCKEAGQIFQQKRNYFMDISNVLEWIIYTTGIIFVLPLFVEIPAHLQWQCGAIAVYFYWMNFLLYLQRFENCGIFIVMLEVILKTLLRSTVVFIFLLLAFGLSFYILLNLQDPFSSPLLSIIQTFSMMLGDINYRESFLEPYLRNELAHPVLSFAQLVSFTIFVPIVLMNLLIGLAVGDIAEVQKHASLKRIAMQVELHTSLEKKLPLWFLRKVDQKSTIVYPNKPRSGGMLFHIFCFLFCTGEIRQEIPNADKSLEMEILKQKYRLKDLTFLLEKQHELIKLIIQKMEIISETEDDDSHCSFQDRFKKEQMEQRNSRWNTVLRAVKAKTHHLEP
T1 sequence (Q7Z2W7 whole entry F1045A/K1046G): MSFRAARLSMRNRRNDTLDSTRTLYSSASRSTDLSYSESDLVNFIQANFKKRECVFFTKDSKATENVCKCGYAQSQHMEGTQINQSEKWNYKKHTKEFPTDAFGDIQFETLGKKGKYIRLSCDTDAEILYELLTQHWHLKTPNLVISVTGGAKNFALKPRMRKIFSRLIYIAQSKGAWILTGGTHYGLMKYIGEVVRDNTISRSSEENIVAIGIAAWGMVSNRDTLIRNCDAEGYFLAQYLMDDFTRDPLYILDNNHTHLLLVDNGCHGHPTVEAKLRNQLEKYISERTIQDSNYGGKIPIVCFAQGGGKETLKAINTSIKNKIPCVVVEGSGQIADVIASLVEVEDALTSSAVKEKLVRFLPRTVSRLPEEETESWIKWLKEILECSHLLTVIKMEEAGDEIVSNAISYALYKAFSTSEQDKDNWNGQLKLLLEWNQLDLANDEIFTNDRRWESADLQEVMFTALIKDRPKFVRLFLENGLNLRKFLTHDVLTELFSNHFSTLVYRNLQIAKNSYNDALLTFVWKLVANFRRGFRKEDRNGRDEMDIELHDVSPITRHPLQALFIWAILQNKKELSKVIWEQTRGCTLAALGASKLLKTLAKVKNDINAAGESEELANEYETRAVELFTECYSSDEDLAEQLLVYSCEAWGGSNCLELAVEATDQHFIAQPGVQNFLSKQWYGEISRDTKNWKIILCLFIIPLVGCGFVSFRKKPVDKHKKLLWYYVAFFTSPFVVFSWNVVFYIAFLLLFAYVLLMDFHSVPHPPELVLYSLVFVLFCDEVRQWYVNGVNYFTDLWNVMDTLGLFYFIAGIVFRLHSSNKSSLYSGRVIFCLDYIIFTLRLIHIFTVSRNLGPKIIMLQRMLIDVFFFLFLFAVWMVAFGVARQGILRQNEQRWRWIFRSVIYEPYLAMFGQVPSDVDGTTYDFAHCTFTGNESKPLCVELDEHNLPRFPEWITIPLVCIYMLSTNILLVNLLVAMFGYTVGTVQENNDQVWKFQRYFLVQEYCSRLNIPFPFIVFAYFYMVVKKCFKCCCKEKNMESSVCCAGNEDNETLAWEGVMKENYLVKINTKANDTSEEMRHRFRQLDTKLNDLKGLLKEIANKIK
T3 sequence (Q7Z2W7 whole entry): as the sequence (Q7Z2W7 whole entry F1045A/K1046G) above, with A1045F, G1046K counted along it
T5 sequence (O75762 whole entry S804N): as the sequence (O75762 whole entry) above, with S804N counted along it
T7 sequence (O75762 with tags, fused parts or gaps limits assumed): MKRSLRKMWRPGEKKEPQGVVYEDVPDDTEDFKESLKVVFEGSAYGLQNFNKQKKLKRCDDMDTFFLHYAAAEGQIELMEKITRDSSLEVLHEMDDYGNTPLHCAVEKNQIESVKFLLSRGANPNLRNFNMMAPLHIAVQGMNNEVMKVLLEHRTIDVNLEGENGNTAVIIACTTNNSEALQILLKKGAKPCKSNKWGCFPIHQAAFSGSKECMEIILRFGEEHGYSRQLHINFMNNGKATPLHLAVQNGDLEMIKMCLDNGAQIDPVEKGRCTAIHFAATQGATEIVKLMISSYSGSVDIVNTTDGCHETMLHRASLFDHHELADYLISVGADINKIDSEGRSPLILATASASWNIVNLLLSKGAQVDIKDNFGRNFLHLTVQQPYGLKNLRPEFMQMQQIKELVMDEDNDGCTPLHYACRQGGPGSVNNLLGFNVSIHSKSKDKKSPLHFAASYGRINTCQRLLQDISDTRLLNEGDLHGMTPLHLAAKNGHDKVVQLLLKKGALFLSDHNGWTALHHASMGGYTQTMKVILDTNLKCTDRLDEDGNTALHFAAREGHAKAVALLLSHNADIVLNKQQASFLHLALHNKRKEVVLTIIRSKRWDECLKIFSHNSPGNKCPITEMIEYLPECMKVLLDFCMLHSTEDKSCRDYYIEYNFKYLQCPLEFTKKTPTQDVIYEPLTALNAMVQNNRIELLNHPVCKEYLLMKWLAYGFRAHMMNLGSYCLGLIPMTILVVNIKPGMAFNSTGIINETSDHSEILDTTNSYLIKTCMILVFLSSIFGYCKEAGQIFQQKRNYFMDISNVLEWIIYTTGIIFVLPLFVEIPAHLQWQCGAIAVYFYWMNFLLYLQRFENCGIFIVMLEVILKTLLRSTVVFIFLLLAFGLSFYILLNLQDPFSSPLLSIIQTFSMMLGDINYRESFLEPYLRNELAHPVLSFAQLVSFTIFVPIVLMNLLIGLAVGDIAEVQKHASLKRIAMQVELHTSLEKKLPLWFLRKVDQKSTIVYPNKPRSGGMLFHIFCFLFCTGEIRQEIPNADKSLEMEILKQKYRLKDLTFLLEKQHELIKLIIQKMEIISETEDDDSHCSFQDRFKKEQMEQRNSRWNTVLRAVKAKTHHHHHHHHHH
T2 sequence (Q7Z2W7 whole entry S762E/V763L): as the sequence (Q7Z2W7 whole entry F1045A/K1046G) above, with S762E, V763L, A1045F, G1046K counted along it
T4 sequence (O75762 whole entry R797T): as the sequence (O75762 whole entry) above, with R797T counted along it
T8 sequence (O75762 whole entry R797T): as the sequence (O75762 whole entry) above, with R797T counted along it

Q: Which “Intracellular Ca2+ transients in empty-vector control cells” value [1] does the source give for `COc1ccc(NC(=O)[C@@H]2CC(C)CC[C@H]2C(C)C)cc1` (stereo partly drawn) [WS 12, (1R,2S)-N-(4-methoxyphenyl)-5-methyl-2-(1-methylethyl)cyclohexanecarbo-xamide] here?
A: Its value is “did not exhibit intracellular Ca^2+ transients”.

Q: And the EC50 (TRPM8 FK 1045,1046 AG [2])?
A: The EC50 was 194 ± 50 nM.

Q: And the EC50 (TRPM8 SV 762,763 EL)?
A: The EC50 was 178 ± 22 nM.

Q: And the EC50 (TRPM8 FK 1045,1046 AG [3]; mean±S.E.M., n=3, read-out: EC50 for WS 12 (peak intracellular Ca2+ fluorescence))?
A: Its EC50 is 187 ± 37 nM.

Q: And the EC50 (human TRPM8; HEK293 TRPM8, mean±S.E.M., n=3, read-out: EC50 for WS 12 (peak intracellular Ca2+ fluorescence))?
A: Its EC50 is 128 ± 22 nM.

Q: What does the source list for `O=C/C=C/c1ccccc1` [cinnamaldehyde]?
A: EC50 (TRPA1 797T): 3000 ± 1000 nM; EC50 (TRPA1 804N): 11000 ± 3000 nM; EC50 (TRPA1 797R): 15000 ± 5000 nM; EC50 (TRPA1-(His)10): 8000 ± 2000 nM

Q: How did the “Recovery of responses to TRPA1 agonists after pre-treatment” value (SH-SY5Y TRPA1 R797T) turn out when `Nc1ncnc2c1cnn2-c1ccccc1` [PP3, 4-amino-7-phenylpyrazol[3,4-d]pyrimidine] was run?
A: Its value is “did not facilitate recovery”.

Q: And the “Effect of pre-treatment on responses to TRPM8 agonist” value (TRPM8 FK 1045,1046 AG [3]; 150 nM WS 12)?
A: The value was “did not affect responses; also recorded: did not inhibit responses”.

Q: For `CC1CCC(C(C)C)C(O)C1` (stereo not drawn) [menthol], which “Intracellular Ca2+ transients in empty-vector control cells” value [1] is on record?
A: Its value is “did not exhibit intracellular Ca^2+ transients”.

Q: Which results are given for `CCCN(CCC)S(=O)(=O)c1ccc(C(=O)O)cc1` [probenecid]?
A: Effect of probenecid on TRPA1-induced intracellular Ca2+ response (TRPA1 797R; probenecid above 1 mM, up to 2.5 mM, 60 μM cinnamaldehyde): suppressed; also recorded: inhibited; Effect of low probenecid concentration on Ca2+ assay results (human TRPM8; 0.13 mM probenecid, relative to data derived using sulfinpyrazone, TRPM8 and TRPA1 assays): did not affect; Effect of probenecid on TRPM8-induced intracellular Ca2+ response (human TRPM8; probenecid above 1 mM, up to 2.5 mM, 40 nM WS 12): inhibited; also recorded: suppressed the response to WS 12
